By IC50 is commonly meant the concentration that gives 50% inhibition.

13 molecules from patent US11485740B2, “Inhibitors of TRPC6” (Boehringer Ingelheim International GmbH, priority 2018, dated 2022) can be followed below.

The target in this assay is T1, human TRPC6 (Homo sapiens, UniProt Q9Y210).
T1 construct: expressed in transfected cells
T1 sequence (Q9Y210 1-931): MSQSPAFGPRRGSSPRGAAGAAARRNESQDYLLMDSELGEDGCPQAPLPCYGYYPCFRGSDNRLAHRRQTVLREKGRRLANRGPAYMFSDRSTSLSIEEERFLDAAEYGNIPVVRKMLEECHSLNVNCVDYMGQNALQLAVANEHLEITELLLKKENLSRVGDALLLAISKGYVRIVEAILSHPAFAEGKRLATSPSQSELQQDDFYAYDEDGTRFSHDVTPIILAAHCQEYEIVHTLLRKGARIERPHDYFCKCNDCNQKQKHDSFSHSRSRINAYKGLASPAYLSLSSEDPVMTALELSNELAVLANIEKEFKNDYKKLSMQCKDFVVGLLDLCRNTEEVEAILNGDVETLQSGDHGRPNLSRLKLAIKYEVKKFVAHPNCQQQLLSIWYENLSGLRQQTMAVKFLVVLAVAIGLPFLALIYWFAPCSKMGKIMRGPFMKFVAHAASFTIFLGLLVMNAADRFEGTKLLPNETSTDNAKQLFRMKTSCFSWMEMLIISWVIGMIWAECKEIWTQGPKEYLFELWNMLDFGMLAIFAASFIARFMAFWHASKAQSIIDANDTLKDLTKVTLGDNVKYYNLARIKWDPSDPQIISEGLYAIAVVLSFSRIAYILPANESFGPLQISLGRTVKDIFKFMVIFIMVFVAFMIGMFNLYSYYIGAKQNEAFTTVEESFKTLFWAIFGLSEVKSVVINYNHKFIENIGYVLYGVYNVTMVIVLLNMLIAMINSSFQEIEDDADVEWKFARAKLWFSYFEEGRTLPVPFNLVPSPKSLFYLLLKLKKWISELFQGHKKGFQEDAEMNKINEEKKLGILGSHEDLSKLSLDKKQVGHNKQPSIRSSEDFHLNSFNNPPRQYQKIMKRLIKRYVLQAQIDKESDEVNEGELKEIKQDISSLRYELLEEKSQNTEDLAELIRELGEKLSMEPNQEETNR
Description: High throughput screening assay: Fluo4/AM calcium fluorescence in HEK293/TREx cells expressing human TRPC6, agonist GSK1702934A (single concentration 10 μM and IC50 curves). Format: cell-based. Conditions: antagonist effect against human TRPC6, 7 concentrations 20 μM to 0.027 μM, triplicate. An outline of the steps: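 HEK293/TREx cells stably carrying tetracycline-induced (1 μg/ml) human TRPC6, loaded with Fluo4/AM (0.5 μM, 60 min, RT), pretreated 2 min with compound (10 μM final in screen), then stimulated with GSK1702934A in high-Ca2+ Ringer's (20 mM Ca2+ final). Fluorescence ratio over ~3 min normalized to no-compound and control-blocker wells; IC50 from triplicate curves.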
`COc1cc(C(=O)N2CCC(c3ccc(N)nn3)CC2)ncc1-c1ccc(OC(F)F)cc1` [Compound 39, [4-(6-Amino-pyridazin-3-yl)-piperidin-1-yl]-[5-(4-difluoromethoxy-phenyl)-4-methoxy-pyridin-2-yl]-methanone]: the half-maximal inhibitory concentration (IC50) came to 320 nM.

For the molecule `COc1cc(C(=O)N2CCC(c3ccc(N)nn3)CC2)ncc1-c1ccc(C(F)F)cc1` [Compound 38, [4-(6-Amino-pyridazin-3-yl)-piperidin-1-yl]-[5-(4-difluoromethyl-phenyl)-4-methoxy-pyridin-2-yl]-methanone], the IC50 was found to be 180 nM.

Take `COc1cc(C(=O)N2CCC(c3ccc(N)nn3)CC2)ncc1-c1ccc(F)c(F)c1` [Compound 33, [4-(6-Amino-pyridazin-3-yl)-piperidin-1-yl]-[5-(3,4-difluoro-phenyl)-4-methoxy-pyridin-2-yl]-methanone]: the IC50 was found to be 62 nM.

For `COc1cc(C(=O)N2CCN(c3cnc(N)cc3OC)CC2)ncc1-c1ccc(C(F)(F)F)cc1` [Compound 103, [4-(6-Amino-4-methoxy-pyridin-3-yl)-piperazin-1-yl]-[4-methoxy-5-(4-trifluoromethyl-phenyl)-pyridin-2-yl]-methanone], the concentration for half-maximal inhibition (IC50) turned out to be 27 nM.

As to `COc1cc(C(=O)N2CCN(c3ccc(N)nc3)C[C@@H]2CO)ncc1-c1ccc(F)cc1` [Compound 90, [(R)-4-(6-Amino-pyridin-3-yl)-2-hydroxymethyl-piperazin-1-yl]-[5-(4-fluoro-phenyl)-4-methoxy-pyridin-2-yl]-methanone], the IC50 was determined as 370 nM.

For `CC(C)(C)c1ccc(-c2ccc(C(=O)N3CCC(c4ccc(N)nn4)CC3)cc2)cc1` [Compound 10, [4-(6-Amino-pyridazin-3-yl)-piperidin-1-yl]-(4′-tert-butyl-biphenyl-4-yl)-methanone], the half-maximal inhibitory concentration (IC50) stood at 9200 nM.

For `COc1cc(C(=O)N2CCC(c3ccc(N)nn3)CC2)ccc1-c1cnc(OC(C)C)nc1` [Compound 62, [4-(6-Amino-pyridazin-3-yl)-piperidin-1-yl]-[4-(2-isopropoxy-pyrimidin-5-yl)-3-methoxy-phenyl]-methanone], the 50% inhibitory concentration (IC50) stood at 1100 nM.

In the case of `Nc1ccc(C2CCN(C(=O)c3ccc4c(c3)oc3ccccc34)CC2)nn1` [Compound 11, [4-(6-Amino-pyridazin-3-yl)-piperidin-1-yl]-dibenzofuran-3-yl-methanone], the IC50 amounted to 2000 nM.

As to `COc1cc(C(=O)N2CCC(c3ccc(N)nn3)CC2)ncc1-c1cccc(OCC(C)C)c1` [Compound 52, [4-(6-Amino-pyridazin-3-yl)-piperidin-1-yl]-[5-(3-isobutoxy-phenyl)-4-methoxy-pyridin-2-yl]-methanone], the half-inhibitory concentration (IC50) worked out at 240 nM.

In the case of `COc1cc(C(=O)N2CCC(c3ccc(N)nn3)CC2)ncc1-c1ccc(OC(C)C)cc1` [Compound 30, [4-(6-Amino-pyridazin-3-yl)-piperidin-1-yl]-[5-(4-isopropoxy-phenyl)-4-methoxy-pyridin-2-yl]-methanone], the IC50 is 340 nM.

Regarding `COc1cc(C(=O)N2CCN(c3cnc(N)cc3OC)CC2)ncc1-c1ccc(F)cc1` [Compound 104, [4-(6-Amino-4-methoxy-pyridin-3-yl)-piperazin-1-yl]-[5-(4-fluoro-phenyl)-4-methoxy-pyridin-2-yl]-methanone], the concentration for half-maximal inhibition (IC50) amounted to 27 nM.

In the case of `CCc1cc(C(=O)N2CCC(c3ccc(N)nn3)CC2)ccc1-c1ccc(C(F)(F)F)cc1` [Compound 70, [4-(6-Amino-pyridazin-3-yl)-piperidin-1-yl]-(2-ethyl-4′-trifluoromethyl-biphenyl-4-yl)-methanone], the IC50 stood at 1400 nM.

Turning to `COc1cc(C(=O)N2CCN(c3cnc(N)cc3OC)C[C@@H]2[C@@H](C)O)ncc1-c1ccc(C(F)(F)F)cc1` [Compound 106, [(R)-4-(6-Amino-4-methoxy-pyridin-3-yl)-2-((R)-1-hydroxy-ethyl)piperazin-1-yl]-[4-methoxy-5-(4-trifluoromethyl-phenyl)-pyridin-2-yl]-methanone], the 50% inhibitory concentration (IC50) was determined as 440 nM.
